Source: US12520839B2, “Methods and compositions for cryopreservation of cell therapies” (The George Washington University, priority 2020, dated 2026)

Assays:
Assay type in all cases: cell-based
[1] = tested on: NK cells; assay: NK-cell phenotype by flow cytometry after thawing
Method: (§1) Polyclonally activated T cells and expanded NK cells were expanded for 14 and 12 days respectively and cryopreserved using freezing media (FM) with or without TAPI-2 prepared as described in Example 1. Cryovials were then stored in liquid nitrogen tank.
Flow analysis was performed 120 minutes after thawing (except for NKG2D which expression was analyzed immediately after thawing).

[2] = tested on: T cells; assay: CD62L expression on T cells after cryopreservation and thawing
Method: (§2) A freezing medium (FM) was prepared having 50% RPMI, 40% FBS, 10% DMSO. FM was supplemented with the ADAM17 inhibitor TAPI-2 at amounts indicated in this example. Additionally, a wash medium (WM) was prepared having 50% RPMI, 40% FBS, 10% DMSO and supplemented with TAPI-2 at amounts indicated in this example.
(§3) Experiments were generally performed using in-vitro NK cells and T cells that were isolated and expanded for 14 days in culture. On day 14 of the culture, the NK cells and T cells were cryopreserved the using FM with or without TAPI-2. Then, cells were thawed using WM with or without TAPI-2.
CD62L expression is maintained in T cells in presence of TAPI-2.
Next, T cells were cryopreserved in freezing media without TAPI-2.

[3] = tested on: NK cells; assay: CD16 expression on NK cells after cryopreservation and thawing
Method: as §2, §3
CD16 expression is maintained in NK cells in presence of TAPI-2.

[4] = tested on: NK cells and T cells; assay: Cell viability after thawing, trypan blue exclusion; conditions: TAPI-2 added to freezing medium; immediately and 120 minutes after thawing; FIGS. 6A-6B
Method: as §1
Cryovials were thawed in water bath with cell wash performed, cell recovery (FIGS. 5A-5B) and viability (FIGS. 6A-6B) was assessed immediately after thawing. Cell viability was also assessed 120 minutes after thawing (FIGS. 6A-6B). Trypan blue exclusion method was use to evaluate cell viability.

CC(C)C[C@H](CC(=O)NO)C(=O)N[C@H](C(=O)N[C@@H](C)C(=O)NCCN)C(C)(C)C [TAPI-2]
phenotype ([1]; TAPI-2 added to freezing medium, summary statement): did not negatively affect | NK-cell phenotype ([1]; TAPI-2 in the freezing media, flow analysis 120 minutes after thawing (NKG2D immediately after thawing), FIG. 7): not affected | CD62L expression after thawing ([2]; FM containing 50 μM TAPI-2, thawed and not washed, immediately after thawing and 2 hours thereafter, FIG. 3): able to maintain CD62L expression | CD62L expression versus level before cryopreservation ([2]; T cells cryopreserved in FM containing TAPI-2, FIG. 3): retained expression of CD62L to a level that was equal to that before cells were subjected to cryopreservation | CD62L expression after washing with wash medium containing TAPI-2 ([2]; frozen in freezing media without TAPI-2, wash media with 10 μM TAPI-2 (Thaw+), FIG. 4): showed CD62L expression | CD16 expression after thawing ([3]; FM containing 50 μM TAPI-2, thawed and not washed, immediately after thawing and 2 hours thereafter, FIG. 1): able to maintain CD16 expression | CD16 expression versus level prior to cryopreservation ([3]; NK cells cryopreserved in FM containing TAPI-2, FIG. 1): retained expression of CD16 to the same level as prior cryopreservation | CD16 expression after washing with wash medium containing TAPI-2 ([3]; frozen in freezing media without TAPI-2, wash media with 10 μM TAPI-2 (Thaw+), FIG. 2): showed CD16 expression | cell viability [4]: did not negatively affect
